# Data published in patent publication US10704076B2, “Multi-tiered high through-put screen for compounds effective against bacterial biofilm and compounds effective for inhibiting and eradicating bacterial biofilm” (University of Cincinnati, priority 2013, dated 2020).
# Entries after “also recorded” stand apart in the source; their conditions may differ.
# Legend:
# Type in all cases: cell-based, Acinetobacter baumannii
# A. baumannii biofilm [1] = test: HTS live biofilm assay (resazurin metabolic activity); details: Acinetobacter baumannii, 10 point dose-response 0.1-50 μM
# Excerpt: (§1) Each HTS tier consisted of: (i) primary screening, (ii) confirmation screening and (iii) dose-response curve screening. Each tier of HTS included three distinct biological process assays. The first assay was an optical density measurement of bacteria growth in the presence of each compound reported as a total bacteria growth. In the second assay, resazurin solution was used as an indicator of metabolic activity to measure the live bacteria in the biofilms, reported as live biofilm. The final assay was crystal violet staining, which indicated the amount of biofilm formation and the effect of each compound on this process, reported as total biofilm formation.
# (§2) Briefly, stationary phase bacteria grown in L-broth were diluted 1:200 into fresh L-broth and 50 μM of each test compound. After 20-24 hours, the optical density (OD560) of each suspension was measured using Zeiss Plate::Vision with a 560 BP filter (560 nm, 2.5% light intensity, 1 mm focus to bottom of plate, and exposure time of 100 ms). To measure bacterial viability in the biofilm, 50 μl of a 5 mg/ml resazurin solution in L-broth was added to each well after washing 3 times with 50 μl of PBS. The plates were then incubated at 37° C. for 30 or 180 min for A. baumannii and P. aeruginosa biofilms, respectively. Fluorescence was measured using Zeiss Plate::Vision at excitation and emission wavelengths of 535 and 580 nm, 100 ms exposure time, 2.5% intensity and a 2 mm focus to the bottom of the biofilms. To assess biofilm formation, plates were washed 3 times with PBS and then 50 μl of 0.01% of crystal violet was added to each well to assess bacterial biofilm formation as described in a similar borosilicate tube assay by O'Toole and Kolter. After incubation at room temperature for 30 min and removal of the crystal violet solution by washing with PBS, 95% ethanol was added to solubilize the crystal violet followed by incubation for 20 min at room temperature. Finally, the optical density of each plate was determined using measured by Zeiss Plate::Vision using the same settings used to measure total bacterial growth. These 3 steps were used in each of the three tiers for the HTS process: (i) single point primary screening at 10 μM, (ii) triplicate confirmation of hits from (i) at 10 μM and (iii) determination of AC50 values in 10 point dose-response at a concentration range of 0.1-50 μM) in hits from (ii). The AC50 represents the concentration of compound that inhibits 50% of bacterial growth, bacterial viability, or biofilm formation. Genedata Screener® Assay Analyzer Software (Ver. 9.0.0 Standard) was used to analyze data from all assay tiers. Compounds with an AC50 of less than 20 μM in one of the biological assays from the dose response screen were subject to additional investigation.
# [2] = test system: A. baumannii established biofilm; test: CLSM, effect of compound on the pre-existing biofilm; details: 24 hr; for killing of established A. baumannii biofilm (CLSM, in words): 300 μM; for Effect of compound on the pre-existing biofilm: Killing: CLSM, 300 μM compound, Y / —
# Procedure: (§3) Broad spectrum agents (effective against all three bacterial species) and single agent compounds identified as HTS hits were investigated with CLSM confirmation of inhibition of biofilm formation (culture of bacteria with compounds) or killing of bacteria residing within an established biofilm (compound addition after culturing biofilm). To evaluate inhibition of P. aeruginosa biofilms, bacteria were sub-cultured into 10% L-broth and grown at 37° C. until the OD600 reached 0.25. The bacteria were further diluted 1:100 into a modified 0.5×M63 minimum media (50 mM KH2PO4, 7.5 mM (NH4)2SO4, 9 μM FeSO4, 0.5% casamino acids, 0.2% glucose, and 1 mM MgSO4). A. baumannii biofilms were also grown in 10% L-broth until the OD600 reached 0.05 but diluted 1:10 into 5% L-broth media. S. epidermidis biofilm cultures were grown. Briefly, the bacteria were grown in TSB until the OD600 reached 0.75, and a 1:100 dilution of the bacteria was sub-cultured into phosphate buffered saline (PBS). All of the biofilm bacterial cultures were grown in 96-well plate chambers (MatTek Corp., Ashland, Mass.) in the presence of 10 μM of each compound or DMSO as a control and incubated for 18 hrs at 37° C. To investigate the ability of compounds to kill bacteria within pre-existing biofilms, biofilms were grown under the same conditions, but without test compound. These biofilms were washed once with PBS and incubated an additional 24 hr at 37° C. in PBS containing 300 μM of each compound. All biofilm cultures were then washed twice with 100 μL of PBS and stained using the LIVE/DEAD® BacLight™ Bacterial Viability Kit (Invitrogen). Finally, biofilm images were obtained using a Zeiss LSM510 META Confocal Microscope (Carl Zeiss, Inc., Germany). A 488 nm laser was used in conjunction with a Plan-Apochromat 100×/1.4 Oil DIC objective. Z-stacks were 8 bit and measured 127.3 μm×127.3 μm×16.0 μm in size. The filters used were 505-530 and 620-680 IR, as the excitation and emission wavelengths for red fluorescence are 490 nm and 635 nm, respectively, and 480 nm and 500 nm for green fluorescence. Three dimensional images were generated using the “Projection” ability on LSM Image Browser software (v.1.4.0.121) or Zeiss LSM image browser software version 3.5 (Carl Zeiss, Inc., Germany), and Live/Dead calculations were conducted based upon these images using MacBiophotonics ImageJ following the guidelines in the cell counting guide by C. Labno {Rasband, 1997-2011 #25; Labno, #2} at the University of Chicago Integrated Light Microscopy Core. The thickness of the biofilm was calculated using Comstat software. A hit was defined as a >50% dead to live ratio.
# (§4) The CLSM experiment was performed in one or two or all bacteria used in this study depending on its activity. For the validation of HTS hits, 10 μM of compound was added to each bacterial suspension and the resulting biofilm stained with LIVE/DEAD® BacLight™ Bacterial Viability Kit. The images were analyzed to determine the live and dead ratios of biofilm bacteria, the thickness of biofilms, and structural attributes of biofilms.
# A. baumannii = test: HTS total bacterial growth assay (optical density OD560); details: 10 point dose-response 0.1-50 μM, NS* = no sigmoid curve observed; for AC50: Acinetobacter baumannii, read-out: Total Bacteria Growth AC50
# Excerpt: as §1, §2
# A. baumannii biofilm [3] = test: HTS total biofilm formation assay (crystal violet staining); details: Acinetobacter baumannii, 10 point dose-response 0.1-50 μM
# Excerpt: as §1, §2
# A. baumannii biofilm [4] = test: CLSM, co-culture of bacteria with compound (inhibition of biofilm formation); details: 10 μM
# Procedure: as §3, §4
Compound,AC50 (A. baumannii biofilm [1]) [µM],"killing of established A. baumannii biofilm (CLSM, in words) [2]",Effect of compound on the pre-existing biofilm: Killing [2],AC50 (A. baumannii) [µM],AC50 (A. baumannii biofilm [3]) [µM],Total Bacteria Growth AC50 (A. baumannii),"killing of residential bacteria, co-culture (CLSM, in words) (A. baumannii biofilm [4])"
"Oc1ccc2c(c1O)O[C@@]13NC(=S)N[C@@H](c4ccccc4)[C@H]1CCC[C@H]3[C@H]2c1ccccc1 (relative stereo) [Compound 24, (4R,4aR,7aS,8S,13aR)-rel-3,4,4a,5,6,7,7a,8-octahydro-11,12-dihydroxy-4,8-diphenyl-[1]Benzopyrano[3,2-i]quinazoline-2(1H)-thione]",1.13,demonstrated killing of established biofilm culture; also recorded: effective against biofilm resident A. baumannii,Y (A hit was defined as a >50% dead to live ratio),> 200,3.75,–,–
"O=C(N/N=C/c1cc(Br)c(O)cc1O)c1cc2c(ccc3ccccc32)o1 [Compound 23, N′-[(E)-(5-Bromo-2,4-dihydroxyphenyl)methylene]naphtho[2,1-b]furan-2-carbohydrazide]",8.97,–,–,> 200,17.5,–,–
"Oc1c(Cl)cc(Cl)c(Cl)c1-c1nc2ccccc2[nH]1 [Compound 29, 2-(1H-benzoimidazol-2-YL)-3,4,6 Trichlrophenol]",> 200,–,–,–,8.37,NS*,–
"Cc1n[nH]c(O)c1C(c1cccc(OCc2ccc(Cl)c(Cl)c2)c1)c1c(C)n[nH]c1O [Compound 26, 4-[{3-[(3,4-dichlorobenzyl)oxy]phenyl}(5-hydroxy-3-methyl-1H-pyrazol-4-yl)methyl]-3-methyl-1H-pyrazol-5-ol]",8.07,demonstrated killing of established biofilm culture; also recorded: effective against biofilm resident A. baumannii,Y (A hit was defined as a >50% dead to live ratio),–,7.6,NS*,–
"N-2-(4-methoxybenzothiazolyl)-2,3-dihydro-4-Methyl-5-oxo-1H,5HBenzo[ij]quinolizine-6-carboxamide [Compound 28]",–,effective against biofilm resident A. baumannii,–,–,–,–,–
"Nc1nonc1-c1nc2ccccc2n1CC(=O)N/N=C/c1cc(Br)cc(Br)c1O [Compound 21, 2-[2-(4-amino-1,2,5-oxadiazol-3-yl)-1H-benzimidazol-1-yl]-N′-[(E)-(3,5-dibromo-2-hydroxyphenyl)methylidene]acetohydrazide]",9.86,–,–,–,14.6,NS*,–
"O=C(N/N=C/c1ccc(O)cc1O)c1cc(-c2ccccc2)nc2ccccc12 [Compound 33, N′-(2,4-dihydroxybenzylidene)-2-phenylquinoline-4-carbohydrazide]",7.28,–,–,> 200,17.2,–,–
"CCCCOC(=O)C(=O)CC(=O)/C=C/c1ccccc1 [Compound 30, Butyl (E)-2,4-dioxo-6-phenylhex-5-enoate]",2.35,–,–,–,8.54,NS*,–
"C=CCSC1=NC(C)(C)CC2(CC(c3ccccc3)c3ccc(O)c(O)c3O2)N1 (stereo not shown) [Compound 34, 3,4,5′,6′-tetrahydro-6′,6′-dimethyl-4-phenyl-2′-(2-propen-1-ylthio)-spiro[2H-1-benzopyran-2,4′(3′H)-pyrimidine]-7,8-diol]",–,effective against biofilm resident A. baumannii,–,–,–,–,effective in killing the bacterium
"CCCCC(C(=O)N/N=C/c1cc(Br)ccc1O)C(=O)N/N=C/c1cc(Br)ccc1O [Compound 25, N′1,N′3-Bis [(E)-(5-bromo-2-hydroxyphenyl)methylene]-2-butylmalonohydrazide]",1.26,–,–,> 200,5.11,–,–
